Patent US5494907A, “11-β substituted-19-nor steroids” (Roussel UCLAF, priority 1993, dated 1996)

Molecular target: T1, hPR (recombinant human progesterone receptor) (Homo sapiens, UniProt P06401)
T1 construct: made in house; host or cells: SF9 insect cells (ATCC CRL1711), recombinant baculovirus (BaculoGold Transfection Kit, PharMingen 21000K)
T1 sequence (P06401 1-933): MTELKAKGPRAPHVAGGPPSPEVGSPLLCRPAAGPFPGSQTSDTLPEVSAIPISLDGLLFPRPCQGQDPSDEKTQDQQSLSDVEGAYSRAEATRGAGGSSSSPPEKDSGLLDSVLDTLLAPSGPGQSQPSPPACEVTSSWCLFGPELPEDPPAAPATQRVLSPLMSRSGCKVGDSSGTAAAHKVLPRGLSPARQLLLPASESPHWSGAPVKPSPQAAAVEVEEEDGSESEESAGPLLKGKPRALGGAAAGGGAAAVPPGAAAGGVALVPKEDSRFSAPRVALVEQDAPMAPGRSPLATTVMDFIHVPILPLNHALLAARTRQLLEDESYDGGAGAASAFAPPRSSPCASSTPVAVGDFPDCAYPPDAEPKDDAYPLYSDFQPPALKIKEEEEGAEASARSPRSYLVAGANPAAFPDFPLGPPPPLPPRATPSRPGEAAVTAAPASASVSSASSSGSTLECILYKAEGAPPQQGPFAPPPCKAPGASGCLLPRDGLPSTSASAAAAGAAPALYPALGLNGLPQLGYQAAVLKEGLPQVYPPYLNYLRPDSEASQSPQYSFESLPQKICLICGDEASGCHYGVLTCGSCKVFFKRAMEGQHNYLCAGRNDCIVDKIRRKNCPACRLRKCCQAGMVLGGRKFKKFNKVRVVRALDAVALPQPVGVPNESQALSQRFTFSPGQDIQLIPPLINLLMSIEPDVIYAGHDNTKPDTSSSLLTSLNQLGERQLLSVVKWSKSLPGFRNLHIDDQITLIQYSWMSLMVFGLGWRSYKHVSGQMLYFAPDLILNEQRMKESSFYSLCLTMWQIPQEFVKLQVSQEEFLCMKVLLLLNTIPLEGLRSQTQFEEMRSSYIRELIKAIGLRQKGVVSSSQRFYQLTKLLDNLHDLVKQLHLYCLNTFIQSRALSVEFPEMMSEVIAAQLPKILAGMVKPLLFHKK
Assay: Relative bond affinity (RBA) on recombinant human progesterone receptor, displacement of tritiated 17α,21-dimethyl-19-nor-Δ4,9-pregnadien-3,20-dione
Assay type: binding
Conditions: for RBA hPR: Progesterone = 100, 0° C., 24 hours; for affinity for the progesterone receptor (in words): conclusion in words
Text: 1--Activity on the hormonal receptors using either the natural hormonal receptor of a rat (AR), or the recombinant human receptor (PR, GR and ER).
Human progesterone receptor
The recombinant human progesterone receptor was obtained by superexpression in an insect-Baculovirus cell system by methodology described by WEBB et al. in Journal of Methods in Cell and Molecular Biology, (1990), Vol. 2 N° 4, pp. 173-188 and whose use is described for the expression of human hormonal receptors, for example the human glucocorticoid receptor (SRINIVASAN et al. Molecular Endocrinology, (1990), Vol. 4 N° 2, pp. 209-216).
The BaculoGold Transfection Kit was used (PharMingen, reference 21000K) to insert the cDNA fragment described by KASTNER et al. (The EMBO Journal, (1990), Vol. 9 N° 5, pp. 1603-1614), containing the region coding for the human progesterone receptor and to prepare the corresponding recombinant virus. The recombinant virus was used to express the progesterone receptor in SF9 insect cells (ATCC CRL1711), by the known methodology mentioned previously.
2×10^7 to 2.5×10^7 SF9 cells were cultivated in a […] "Falcon" flask in a TNM-FH "SIGMA" medium supplemented with 10% of foetal calf serum (FCS) and with 50 micrograms/ml of gentamycin. After infection, then incubation at 27° C. for 40 to 42 hours, the cells were lysed in 1 ml of lysis buffer (1) by a freezing-defrosting cycle which was repeated twice more. The supernatant containing the recombinant human progesterone receptor was kept in liquid nitrogen in doses of 1 ml. The supernatant was diluted at the time of use according to a dilution range varying from 1/10th to 1/100th with 10 mM Tris, 0.25 M saccharose, HCl buffer at pH 7.4 containing 0.1% gelatin and then was incubated at 0° C. for 24 hours with a constant concentration (T) of tritiated 17α,21-dimethyl-19-nor-Δ4,9-pregnadien-3,20-dione in the presence of increasing concentrations either of unlabelled progesterone (0-2500×10^-9 M), or of unlabelled product under test (1 to 25000×10^-9 M). The concentration of bound tritiated 17,21-dimethyl 19-nor-Δ4,9-[…] (B) was then measured in each incubate by the technique of adsorption with carbon dextran.
Calculation of the relative bond affinity (RBA).
The following 2 curves were traced: percentage of bound tritiated hormone B/BO as a function of the logarithm of the concentration of unlabelled reference hormone or as a function of the logarithm of the concentration of the unlabelled product under test.
The straight line of the following equation was determined:
BO=Concentration of bound tritiated hormone in the absence of any unlabelled product,
B=Concentration of bound tritiated hormone in the presence of a concentration X of unlabelled product,
B min=Concentration of bound tritiated hormone in the presence of a large excess of cold reference hormone (500 nM). The intersections of the straight line I50 and the curves allowed the evaluation of the concentrations of unlabelled reference hormone (CH) and of the unlabelled product under test (CX) which inhibited by 50% the specific binding of the tritiated hormone on the receptor.
The relative bond affinity (RBA) of the product under test was determined by the equation:
The RBA's of the reference products estradiol, progesterone, dexamethasone and testosterone were arbitrarily taken to be equal to 100.

Compound	RBA hPR	affinity for the progesterone receptor (in words)
CCCCNS(=O)(=O)CCCCCOc1ccc([C@H]2C[C@]3(C)[C@@H](O)CC[C@H]3[C@@H]3CCc4cc(O)ccc4[C@H]32)cc1 [Example 2, N-butyl-5-[4-(Δ1,3,5(10)-estratrien-3,17β-diol-11β-yl)phenoxy]-pentanesulfonamide]	37	marked affinity
CCCCN(C)S(=O)(=O)CCCCCOc1ccc([C@H]2C[C@]3(C)[C@@H](O)CC[C@H]3[C@@H]3CCc4cc(O)ccc4[C@H]32)cc1 [Example 7, N-butyl-5-[4-(Δ1,3,5(10)-estratrien-3,17β-diol-11β-yl)phenoxy]-N-methyl-pentanesulfonamide]	111	marked affinity
CN(CC(F)(F)C(F)(F)C(F)(F)F)S(=O)(=O)CCCCCOc1ccc([C@H]2C[C@]3(C)[C@@H](O)CC[C@H]3[C@@H]3CCc4cc(O)ccc4[C@H]32)cc1 [Example 8, 5-[4-(Δ1,3,5(10)-estratrien-3,17β-diol-11βyl)-Phenoxy]-N-(2,2,3,3,4,4,4-heptafluorobutyl)-N-methyl-pentanesulfonamide]	55	marked affinity
